Assay results from paper PMC12295086, “CtGH76, a Glycoside Hydrolase 76 from Chaetomium thermophilum, with Elongated Glycan-Binding Canyon” (International Journal of Molecular Sciences, 2025).

Target: T1, CtGH76 (Thermochaetoides thermophila, UniProt G0S5Y9)
T1 construct: gene CTHT_0025410; M1-M50 omitted (precursor 439 aa, predicted signal peptide M1-V60); N-terminal His10-tag removed with TEV; pET28a, E. coli SHuffle T7 Express; one molecule per asymmetric unit
Assay: X-ray crystal structure, crystal soaking
Format: binding
Settings: soaked with mannose; subsites −4, −2 and +3

T1 sequence (G0S5Y9 entry or part of it): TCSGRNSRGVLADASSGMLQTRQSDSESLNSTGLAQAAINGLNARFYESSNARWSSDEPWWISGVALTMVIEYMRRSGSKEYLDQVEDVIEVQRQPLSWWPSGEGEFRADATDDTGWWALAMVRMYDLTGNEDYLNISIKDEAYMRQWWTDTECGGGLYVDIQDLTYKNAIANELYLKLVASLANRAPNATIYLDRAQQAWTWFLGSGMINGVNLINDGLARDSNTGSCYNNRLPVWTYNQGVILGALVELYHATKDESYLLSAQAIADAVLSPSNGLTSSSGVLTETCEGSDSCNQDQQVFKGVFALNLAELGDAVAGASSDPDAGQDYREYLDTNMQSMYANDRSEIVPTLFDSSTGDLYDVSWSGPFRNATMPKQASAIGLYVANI

## OC[C@H]1OC(O)[C@@H](O)[C@@H](O)[C@@H]1O (stereo partly shown) [mannose]
  X-ray crystal structure, crystal soaking: Soaking with mannose in CtGH76 identified potential sugar-binding subsites analogous to CtDfg5
